Source: ChEMBL document CHEMBL4665774, “Design, synthesis and biological evaluation of triaryl compounds as novel 20S proteasome inhibitors” (Bioorg Med Chem Lett, 2020)
pIC50: −log10 of the molar value.

Assays:
[1] = target: T1, Proteasome Macropain subunit MB1 (Homo sapiens) (UniProt P28074); test: Inhibition of human 20S proteasome beta 5 at 10 uM relative to control
T1 sequence (whole entry): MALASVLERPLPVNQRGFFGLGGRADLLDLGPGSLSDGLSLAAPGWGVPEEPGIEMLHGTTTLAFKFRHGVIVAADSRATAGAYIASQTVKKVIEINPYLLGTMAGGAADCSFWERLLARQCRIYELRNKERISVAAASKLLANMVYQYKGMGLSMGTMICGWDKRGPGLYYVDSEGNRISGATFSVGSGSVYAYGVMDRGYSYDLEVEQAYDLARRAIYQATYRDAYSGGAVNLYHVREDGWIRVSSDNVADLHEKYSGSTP

MDA-MB-468 = test: Antiproliferative activity against human MDA-MB-468 cells assessed as reduction in cell viability by SRB assay
[2] = target: T2, Proteasome Macropain subunit MB1 (Homo sapiens, UniProt P28074); test: Inhibition of human 20S proteasome beta 5
T2 sequence (P28074 whole entry): T1 sequence (whole entry)

Homo sapiens = organism: Homo sapiens; test: Inhibition of human 20S proteasome beta 5i subunit at 10 microM relative to control

Compound	inhibition [1] [%]	pIC50 (MDA-MB-468)	pIC50 [2]	other results
CC(C)N(Cc1cccc(-c2cccs2)c1)C(=O)c1cc2ccccc2o1	< 30			
CC(C)N(Cc1ccc(-c2cccnc2)cc1)C(=O)COc1ccc(Oc2ccccc2)cc1		< 4.40	5.86	
CCCc1ccc(OCC(=O)N(Cc2nc(-c3ccco3)no2)C(C)C)cc1		4.41	6.92	inhibition (Homo sapiens): 7.3%
CCCc1ccc(OCC(=O)N(Cc2cccc(-c3cccnc3)c2)C(C)C)cc1		4.71	5.97	
CCCc1ccc(OCC(=O)N(Cc2nc(-c3ccc4ccccc4n3)no2)C(C)C)cc1		4.46	6.06	
CCCc1ccc(OCC(=O)N(Cc2ccc(-c3cccs3)cc2)C(C)C)cc1			4.47	
CC(C)N(Cc1cccc(-c2ccco2)c1)C(=O)c1ccc2ccccc2n1			4.21	
CC(C)N(Cc1nc(-c2cccnc2)no1)C(=O)COc1ccc(Oc2ccccc2)cc1		5.17	5.79	
CC(C)N(Cc1cccc(-c2cccnc2)c1)C(=O)c1cc2ccccc2o1			4.69	
CCCc1ccc(OCC(=O)N(Cc2cccc(-c3cncnc3)c2)C(C)C)cc1		4.52	5.64	
CCCc1ccc(OCC(=O)N(Cc2cncc(-c3cccnc3)c2)C(C)C)cc1	< 30			
CC(C)N(Cc1cncc(-c2cccnc2)c1)C(=O)c1cc2ccccc2o1	< 30			
CCCc1ccc(OCC(=O)N(Cc2nc(-c3ccc4ccccc4c3)no2)C(C)C)cc1			5.37	
CC(C)N(Cc1nc(-c2ccco2)no1)C(=O)c1ccc2ccccc2n1	< 30			
CCCc1ccc(OCC(=O)N(Cc2nc(-c3cccs3)no2)C(C)C)cc1		4.57	6.74	inhibition (Homo sapiens): 25.3%
CC(C)N(Cc1ccc(-c2cccs2)cc1)C(=O)COc1ccc(Oc2ccccc2)cc1	< 30			

Compound	inhibition [1] [%]	pIC50 (MDA-MB-468)	pIC50 [2]	other results
CC(C)N(Cc1nc(-c2ccc3ccccc3c2)no1)C(=O)c1cc2ccccc2o1	< 30			
CCCc1ccc(OCC(=O)N(Cc2cccc(-c3cccs3)c2)C(C)C)cc1			5.02	
CC(C)N(Cc1nc(-c2ccco2)no1)C(=O)c1cnc2ccccc2n1	< 30			
CC(C)N(Cc1cccc(-c2ccco2)c1)C(=O)c1cc2ccccc2o1			4.33	
CCCc1ccc(OCC(=O)N(Cc2ccc(-c3cccnc3)cc2)C(C)C)cc1			5.94	
CC(C)N(Cc1cccc(-c2cncnc2)c1)C(=O)c1cc2ccccc2o1	< 30			
CC(C)N(Cc1cccc(-c2cccs2)c1)C(=O)c1ccc2ccccc2n1		4.50	5.47	
CC(C)N(Cc1nc(-c2ccco2)no1)C(=O)c1cc2ccccc2o1		< 4.40	6.21	
CC(C)N(Cc1cncc(-c2cncnc2)c1)C(=O)c1cc2ccccc2o1	< 30			
CCCc1ccc(OCC(=O)N(Cc2cccc(-c3ccco3)c2)C(C)C)cc1			4.97	
CCCc1ccc(OCC(=O)N(Cc2cncc(-c3cncnc3)c2)C(C)C)cc1	< 30			
CC(C)N(Cc1nc(-c2ccc3ccccc3n2)no1)C(=O)c1cc2ccccc2o1	< 30			
CC(C)N(Cc1nc(-c2cccs2)no1)C(=O)c1cc2ccccc2o1		< 4.40	6.41	
CCCc1ccc(OCC(=O)N(Cc2nc(-c3cccnc3)no2)C(C)C)cc1		5.12		
CC(C)N(Cc1nc(-c2ccco2)no1)C(=O)COc1ccc(Oc2ccccc2)cc1			4.83	
